Blank lines part the entries; values can stand above or below the molecule they belong to.
Assays:
Elg1-RFC [1] = system: T1, Elg1-RFC; assay: cryo-EM structure, […] Å; type: binding, Saccharomyces cerevisiae
T1 construct: heteropentamer; 3xFLAG-Elg1 and Rfc5 (pLANT-2RIL) with Rfc2, Rfc3, Rfc4 (pET11a) co-expressed in E. coli BLR(DE3) (results text says expressed in yeast); anti-FLAG and MonoS; no tag removal told

Elg1-RFC–PCNA = system: T2, Elg1-RFC–PCNA; assay: cryo-EM structure, […] Å (closed PCNA) and […] Å (cracked PCNA); type: binding, Saccharomyces cerevisiae; conditions: glutaraldehyde cross-linked
T2 construct: with Proliferating cell nuclear antigen

Elg1-RFC [2] = system: T1, Elg1-RFC; assay: […]-PCNA unloading from nicked plasmid, gel filtration; type: biochemical, Saccharomyces cerevisiae; conditions: 2 mM AMP-PNP, 56 nM Elg1-RFC, 0.69 nM 32P-PCNA-DNA, 8 mM MgCl2, 100 mM NaCl, pH 7.5, 30 °C, 2 min; supports unloading without hydrolysis
[3] = molecular target: T3, Elg1 (enhanced levels of genome instability 1), subunit of Elg1-RFC (S. cerevisiae, UniProt Q12050 1-791); assay: cryo-EM structure; Elg1-RFC 2.9 uM, PCNA clamp 1.3 uM, 5'-tailed DNA 28.7 uM, ATPgammaS 0.5 mM, Mg-acetate 6.7 mM, ice-water bath, then cross-linked with glutaraldehyde and quenched with Tris; no DNA seen in the maps; closed and cracked PCNA ring; conditions: both partners purified
T3 construct: Elg1 (enhanced levels of genome instability 1), S. cerevisiae; Stood in the assay as a subunit of the Elg1-RFC pentamer; also called 3xFLAG-Elg1; Elg1 subunit; source: E. coli BLR(DE3), co-expressed with Rfc2-5, purified as Elg1-RFC (anti-FLAG resin, MonoS)
T3 sequence (looked up): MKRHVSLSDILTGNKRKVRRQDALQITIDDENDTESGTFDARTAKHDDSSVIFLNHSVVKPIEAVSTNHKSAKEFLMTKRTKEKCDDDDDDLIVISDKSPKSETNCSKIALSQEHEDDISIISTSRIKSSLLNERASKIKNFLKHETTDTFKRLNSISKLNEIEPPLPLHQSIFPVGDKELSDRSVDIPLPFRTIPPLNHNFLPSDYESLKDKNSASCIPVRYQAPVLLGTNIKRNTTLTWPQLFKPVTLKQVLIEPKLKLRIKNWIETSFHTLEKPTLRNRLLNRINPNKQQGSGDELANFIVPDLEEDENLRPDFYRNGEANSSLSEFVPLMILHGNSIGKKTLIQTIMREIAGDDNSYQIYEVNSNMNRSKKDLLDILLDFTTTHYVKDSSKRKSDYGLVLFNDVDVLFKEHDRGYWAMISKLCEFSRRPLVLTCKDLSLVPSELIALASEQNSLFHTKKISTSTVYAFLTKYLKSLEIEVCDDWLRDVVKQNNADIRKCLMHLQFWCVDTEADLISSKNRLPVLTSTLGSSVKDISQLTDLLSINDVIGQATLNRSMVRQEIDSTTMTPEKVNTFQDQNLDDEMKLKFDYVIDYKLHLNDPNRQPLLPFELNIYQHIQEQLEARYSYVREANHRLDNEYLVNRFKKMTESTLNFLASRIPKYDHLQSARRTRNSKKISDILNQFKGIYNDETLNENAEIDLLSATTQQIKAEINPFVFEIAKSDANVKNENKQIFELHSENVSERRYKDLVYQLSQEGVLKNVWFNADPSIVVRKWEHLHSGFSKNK

[4] = molecular target: T4, Rfc4, subunit of Elg1-RFC (S. cerevisiae, UniProt P40339 1-323); assay: as above; conditions: both partners purified
T4 construct: Rfc4, S. cerevisiae replication factor C subunit 4; Stood in the assay as a subunit of the Elg1-RFC pentamer; source: E. coli BLR(DE3), co-expressed with Elg1 and Rfc2, 3, 5, purified as Elg1-RFC (anti-FLAG resin, MonoS)
T4 sequence: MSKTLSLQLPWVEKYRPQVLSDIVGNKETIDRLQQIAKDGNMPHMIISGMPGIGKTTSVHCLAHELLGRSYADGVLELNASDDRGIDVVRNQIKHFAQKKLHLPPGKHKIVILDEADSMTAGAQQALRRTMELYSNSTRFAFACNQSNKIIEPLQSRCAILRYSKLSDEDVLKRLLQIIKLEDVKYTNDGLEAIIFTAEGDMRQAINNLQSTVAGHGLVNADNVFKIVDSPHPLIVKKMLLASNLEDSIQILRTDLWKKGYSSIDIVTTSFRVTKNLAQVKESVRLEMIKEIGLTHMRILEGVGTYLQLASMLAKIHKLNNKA

[5] = molecular target: T5, Rfc3, subunit of Elg1-RFC (S. cerevisiae, UniProt P38629 1-340); assay: as above; conditions: both partners purified
T5 construct: Rfc3, S. cerevisiae replication factor C subunit 3; Stood in the assay as a subunit of the Elg1-RFC pentamer; source: E. coli BLR(DE3), co-expressed with Elg1 and Rfc2, 4, 5, purified as Elg1-RFC (anti-FLAG resin, MonoS)
T5 sequence: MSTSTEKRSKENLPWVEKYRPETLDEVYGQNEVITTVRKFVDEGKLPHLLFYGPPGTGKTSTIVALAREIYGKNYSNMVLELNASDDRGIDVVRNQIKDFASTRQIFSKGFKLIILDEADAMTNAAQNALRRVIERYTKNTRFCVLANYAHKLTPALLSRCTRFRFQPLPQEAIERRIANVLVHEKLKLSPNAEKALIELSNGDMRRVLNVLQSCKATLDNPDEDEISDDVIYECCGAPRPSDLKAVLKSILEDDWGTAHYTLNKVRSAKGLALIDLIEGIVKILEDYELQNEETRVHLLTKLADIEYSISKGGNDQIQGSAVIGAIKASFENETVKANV

[6] = molecular target: the molecule itself; assay: as above
[7] = site in Rfc5, ADP not listed among added components

T1 sequence (P40348 whole entry, one chain of several, further chain): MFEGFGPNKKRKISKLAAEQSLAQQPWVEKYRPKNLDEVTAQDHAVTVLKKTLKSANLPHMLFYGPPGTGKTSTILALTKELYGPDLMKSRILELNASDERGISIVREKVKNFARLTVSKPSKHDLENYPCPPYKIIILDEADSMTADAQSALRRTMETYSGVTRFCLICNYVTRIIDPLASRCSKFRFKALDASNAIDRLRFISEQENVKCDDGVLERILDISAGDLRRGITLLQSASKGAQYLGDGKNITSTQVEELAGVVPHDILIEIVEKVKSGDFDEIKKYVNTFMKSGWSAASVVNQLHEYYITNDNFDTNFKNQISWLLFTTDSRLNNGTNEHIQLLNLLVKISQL
T1 sequence (P38251 whole entry, one chain of several, further chain): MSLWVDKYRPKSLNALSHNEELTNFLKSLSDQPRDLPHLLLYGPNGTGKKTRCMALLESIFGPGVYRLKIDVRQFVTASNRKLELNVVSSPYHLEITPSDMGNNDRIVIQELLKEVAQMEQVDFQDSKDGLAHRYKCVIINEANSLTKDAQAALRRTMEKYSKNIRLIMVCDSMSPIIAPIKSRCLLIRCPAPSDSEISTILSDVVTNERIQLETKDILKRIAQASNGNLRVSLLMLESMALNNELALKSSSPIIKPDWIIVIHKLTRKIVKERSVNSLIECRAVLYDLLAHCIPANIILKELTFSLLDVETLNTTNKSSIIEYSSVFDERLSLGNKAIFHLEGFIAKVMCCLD
T2 sequence (P40348 whole entry, one chain of several, further chain): as the sequence (P40348 whole entry, one chain of several, further chain) above
T2 sequence (P38251 whole entry, one chain of several, further chain): as the sequence (P38251 whole entry, one chain of several, further chain) above

Molecule: Nc1ncnc2c1ncn2[C@@H]1O[C@H](COP(=O)(O)OP(=O)(O)O)[C@@H](O)[C@H]1O [ADP]
- cryo-EM structure, 3.2 Å (Elg1-RFC [1]; [7]): four ATPγS in Rfc2, Rfc3, Rfc4, and Elg1, and one ADP in Rfc5
- cryo-EM structure, 3.3 Å (closed PCNA) and 3.7 Å (cracked PCNA) (Elg1-RFC–PCNA; [7]): In all three Elg1-RFC structures, we found five bound nucleotides

Molecule: Nc1ncnc2c1ncn2[C@@H]1O[C@H](COP(=O)(O)OP(=O)(O)NP(=O)(O)O)[C@@H](O)[C@H]1O [AMP-PNP]
- 32P-PCNA unloading from nicked plasmid, gel filtration (Elg1-RFC [2]): Elg1-RFC can unload PCNA from DNA with non-hydrolyzable AMP-PNP

Molecule: Nc1ncnc2c1ncn2[C@@H]1O[C@H](COP(=O)(O)OP(=O)(O)OP(O)(O)=S)[C@@H](O)[C@H]1O [ATPγS]
- cryo-EM structure, 3.2 Å (Elg1-RFC [1]; 0.5 mM ATPγS final (1 mM in results text), 6.7 mM Mg-acetate, sites in Rfc2, Rfc3, Rfc4 and Elg1, Elg1 site without Mg density): four ATPγS in Rfc2, Rfc3, Rfc4, and Elg1, and one ADP in Rfc5
- cryo-EM structure, 3.3 Å (closed PCNA) and 3.7 Å (cracked PCNA) (Elg1-RFC–PCNA; 0.5 mM ATPγS final (1 mM in results text), 6.7 mM Mg-acetate, sites in Rfc2, Rfc3, Rfc4 and Elg1): In all three Elg1-RFC structures, we found five bound nucleotides: four ATPγS in Rfc2, Rfc3

- binding result [3]: binds
- binding result [4]: binds
- binding result [5]: binds
B1: proliferating cell nuclear antigen (PCNA), S. cerevisiae (natural protein)
chain: MLEAKFEEASLFKRIIDGFKDCVQLVNFQCKEDGIIAQAVDDSRVLLVSLEIGVEAFQEYRCDHPVTLGMDLTSLSKILRCGNNTDTLTLIADNTPDSIILLFEDTKKDRIAEYSLKLMDIDADFLKIEELQYDSTLSLPSSEFSKIVRDLSQLSDSINIMITKETIKFVADGDIGSGSVIIKPFVDMEHPETSIKLEMDQPVDLTFGAKYLLDIIKGSSLSDRVGIRLSSEAPALFQFDLKSGFLQFFLAPKFNDEE
notes: PCNA, S. cerevisiae sliding clamp; Homotrimeric ring; In the unloading assays the kinase site was labelled with 32P; also called PCNA clamp; PCNA ring
- stoichiometry N [6]: 3

— PMC10906927, “Structure of the PCNA unloader Elg1-RFC” (Science Advances, 2024)
